# Measurements published in US7138361B2, “Herbicidal heterocycles” (E. I. du Pont de Nemours and Company, priority 2000, dated 2006).
# What was measured:
# Format in all cases: in vivo
# wild oat (Avena fatua) = assay: Test B postemergence; details: 13 to 15 days
# Outline: (§1)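 Pre: seeded pots sprayed, chemical in non-phytotoxic solvent/surfactant mix. Post: plants 2–18 cm, 1–4 leaf, same formulation. Greenhouse 13–15 d; visual % control vs untreated, 0–100 scale.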
# [1] = test system: crabgrass (Digitaria sanguinalis); assay: Test B postemergence; details: 13 to 15 days
# Outline: as §1
# [2] = test system: cocklebur (Xanthium strumarium); assay: Test B postemergence; details: 13 to 15 days
# Outline: as §1
# [3] = test system: lambsquarters (Chenopodium album); assay: Test B postemergence; details: 13 to 15 days
# Outline: as §1
# Sunflower [4] = assay: Test C preemergence; details: visual evaluation after 12 to 14 days
# [5] = test system: bermudagrass (Cynodon dactylon); assay: Test C preemergence; details: for Plant response rating (0 to 100 where 0 is no effect and 100 is complete control), Bermudagrass: visual evaluation after 12 to 14 days
# Outline: (§2)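 Test chemicals, formulated in a non-phytotoxic solvent mixture with surfactant, were applied preemergence to planted seeds or postemergence to plants 2 to 18 cm tall (1- to 4-leaf stage). After 12 to 14 days in a greenhouse, injury was visually rated against untreated controls on a 0–100 scale.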
# Sunflower [6] = assay: Test C preemergence; details: scale 0 to 100, 0 no effect, 100 complete control
# kochia (Kochia scoparia) = assay: Test C preemergence; details: for Plant response rating (0 to 100), Kochia: visual evaluation after 12 to 14 days
# Outline: as §2
# [7] = test system: johnsongrass (Sorghum halepense); assay: Test C preemergence; details: for Plant response rating (0 to 100), Johnsongrass: visual evaluation after 12 to 14 days
# Outline: as §2
# [8] = test system: velvetleaf (Abutilon theophrasti); assay: Test C preemergence; details: for Plant response rating (0 to 100), Velvetleaf: visual evaluation after 12 to 14 days
# Outline: as §2
# [9] = test system: woolly cupgrass (Eriochloa villosa); assay: Test C preemergence; details: for Plant response rating (0 to 100), Cupgrass, Woolly: visual evaluation after 12 to 14 days
# Outline: as §2
# [10] = test system: common ragweed (Ambrosia elatior); assay: Test C preemergence; details: for Plant response rating (0 to 100), Ragweed, Common: visual evaluation after 12 to 14 days
# Outline: as §2
# corn (Zea mays) = assay: Test C preemergence; details: for Plant response rating (0 to 100), Corn: visual evaluation after 12 to 14 days
# Outline: as §2
# [11] = test system: Surinam grass (Brachiaria decumbens); assay: Test C preemergence; details: for Plant response rating (0 to 100), Surinam grass: visual evaluation after 12 to 14 days
# Outline: as §2
# [12] = test system: cocklebur (Xanthium strumarium); assay: Test C preemergence; details: for Plant response rating (0 to 100), Cocklebur: visual evaluation after 12 to 14 days
# Outline: as §2
# Nightshade = assay: Test C preemergence
# soybean (Glycine max) = assay: Test C preemergence; details: for Plant response rating (0 to 100), Soybean: visual evaluation after 12 to 14 days
# Outline: as §2
# [13] = test system: lambsquarters (Chenopodium album); assay: Test C preemergence; details: for Plant response rating (0 to 100), Lambsquarters: visual evaluation after 12 to 14 days
# Outline: as §2
# [14] = test system: giant foxtail (Setaria faberii); assay: Test C preemergence; details: for Plant response rating (0 to 100), Foxtail, Giant: visual evaluation after 12 to 14 days
# Outline: as §2
# [15] = test system: pigweed (Amaranthus retroflexus); assay: Test C preemergence; details: for Plant response rating (0 to 100), Pigweed: visual evaluation after 12 to 14 days
# Outline: as §2
# [16] = Rate 125 g/ha, scale 0 (no effect) to 100 (complete control)
# [17] = Rate 500 g/ha, scale 0 to 100, 0 is no effect, 100 is complete control
# [18] = Rate 62 g/ha, scale 0 to 100, 0 no effect, 100 complete control
# [19] = preemergence, Rate 31 g/ha, scale 0 to 100
# [20] = preemergence, Rate 125 g/ha, scale 0 to 100, 0 no effect, 100 complete control
# [21] = Rate 62 g/ha; scale 0 to 100, 0 no effect, 100 complete control
# [22] = Rate 125 g/ha, scale 0 to 100, 0 no effect, 100 complete control
# [23] = preemergence, Rate 250 g/ha, scale 0 to 100, 0 no effect, 100 complete control
smiles,measurement,setting,value
CC(C)(C)c1ccn(C2SCN(c3cccc(OC(F)F)c3)C2=O)n1 (centres unmarked) [Compound 36],"Plant response rating, Wild Oat",wild oat (Avena fatua); [16],0
same,"Plant response rating, Wild Oat",wild oat (Avena fatua); [17],20
same,"Plant response rating, Crabgrass",[1]; [16],80
same,"Plant response rating, Crabgrass",[1]; [17],100
same,"Plant response rating, Cocklebur",[2]; [16],20
same,"Plant response rating, Cocklebur",[2]; [17],60
same,"Plant response rating, Lambsquarters",[3]; [16],90
same,"Plant response rating, Lambsquarters",[3]; [17],100
same,"Plant response rating (0 to 100), Sunflower",Sunflower [4]; Rate 250 g/ha,30
same,"Plant response rating, Bermudagrass",[5]; [18],100
same,"Plant response rating, Bermudagrass",[5]; [19],100
same,"Plant response rating (0 to 100 where 0 is no effect and 100 is complete control), Bermudagrass","[5]; preemergence, Rate 250 g/ha",100
same,"Plant response rating, Bermudagrass",[5]; [20],100
same,"Plant response rating, Sunflower",Sunflower [6]; Rate 62 g/ha,0
same,"Plant response rating, Kochia",kochia (Kochia scoparia); [18],100
same,"Plant response rating, Kochia",kochia (Kochia scoparia); [19],70
same,"Plant response rating (0 to 100), Kochia","kochia (Kochia scoparia); preemergence, Rate 250 g/ha",100
same,"Plant response rating, Kochia",kochia (Kochia scoparia); [20],100
same,"Plant response rating, Johnsongrass",[7]; [18],90
same,"Plant response rating, Johnsongrass",[7]; [19],50
same,"Plant response rating (0 to 100), Johnsongrass","[7]; preemergence, Rate 250 g/ha",100
same,"Plant response rating, Johnsongrass",[7]; [20],90
same,"Plant response rating, Velvetleaf",[8]; [18],0
same,"Plant response rating, Velvetleaf",[8]; [19],0
same,"Plant response rating (0 to 100), Velvetleaf","[8]; preemergence, Rate 250 g/ha",40
same,"Plant response rating, Velvetleaf",[8]; [20],0
same,"Plant response rating, Cupgrass, Woolly",[9]; [18],60
same,"Plant response rating, Cupgrass, Woolly",[9]; [19],30
same,"Plant response rating (0 to 100), Cupgrass, Woolly","[9]; preemergence, Rate 250 g/ha",100
same,"Plant response rating, Cupgrass, Woolly",[9]; [20],100
same,"Plant response rating, Ragweed, Common",[10]; [18],0
same,"Plant response rating, Ragweed, Common",[10]; [19],0
same,"Plant response rating (0 to 100), Ragweed, Common","[10]; preemergence, Rate 250 g/ha",50
same,"Plant response rating, Ragweed, Common",[10]; [20],30
same,"Plant response rating, Corn",corn (Zea mays); [18],20
same,"Plant response rating, Corn",corn (Zea mays); [19],0
same,"Plant response rating (0 to 100), Corn","corn (Zea mays); preemergence, Rate 250 g/ha",80
same,"Plant response rating, Corn",corn (Zea mays); [20],40
same,"Plant response rating, Surinam grass",[11]; [18],70
same,"Plant response rating, Surinam grass",[11]; [19],20
same,"Plant response rating (0 to 100), Surinam grass","[11]; preemergence, Rate 250 g/ha",100
same,"Plant response rating, Surinam grass",[11]; [20],70
same,"Plant response rating, Cocklebur",[12]; [18],30
same,"Plant response rating, Cocklebur",[12]; [19],0
same,"Plant response rating (0 to 100), Cocklebur","[12]; preemergence, Rate 250 g/ha",30
same,"Plant response rating, Nightshade","Nightshade; Rate 31 g/ha, scale 0 to 100",0
same,"Plant response rating, Nightshade",Nightshade; [21],30
same,"Plant response rating, Nightshade",Nightshade; [22],50
same,"Plant response rating, Soybean",soybean (Glycine max); [18],30
same,"Plant response rating, Soybean",soybean (Glycine max); [19],30
same,"Plant response rating (0 to 100), Soybean","soybean (Glycine max); preemergence, Rate 250 g/ha",50
same,"Plant response rating, Soybean",soybean (Glycine max); [20],50
same,"Plant response rating, Lambsquarters",[13]; [18],100
same,"Plant response rating, Lambsquarters",[13]; [19],100
same,"Plant response rating (0 to 100), Lambsquarters","[13]; preemergence, Rate 250 g/ha",100
same,"Plant response rating, Lambsquarters",[13]; [20],100
same,"Plant response rating, Foxtail, Giant",[14]; [18],0
same,"Plant response rating, Foxtail, Giant",[14]; [19],90
same,"Plant response rating (0 to 100), Foxtail, Giant","[14]; preemergence, Rate 250 g/ha",100
same,"Plant response rating, Foxtail, Giant",[14]; [20],100
same,"Plant response rating, Pigweed",[15]; [18],0
same,"Plant response rating, Pigweed",[15]; [19],0
same,"Plant response rating (0 to 100), Pigweed","[15]; preemergence, Rate 250 g/ha",100
same,"Plant response rating, Pigweed",[15]; [20],0
CC(C)Oc1cccc(N2CCC(n3ccc(C(C)C)n3)C2=O)c1 (centres unmarked) [Compound 82],"Plant response rating, Wild Oat",wild oat (Avena fatua); [16],0
same,"Plant response rating, Wild Oat",wild oat (Avena fatua); [17],0
same,"Plant response rating, Crabgrass",[1]; [16],0
same,"Plant response rating, Crabgrass",[1]; [17],10
same,"Plant response rating, Cocklebur",[2]; [16],0
same,"Plant response rating, Cocklebur",[2]; [17],20
same,"Plant response rating, Lambsquarters",[3]; [16],20
same,"Plant response rating, Lambsquarters",[3]; [17],70
same,"Plant response rating (0 to 100), Sunflower",Sunflower [4]; Rate 500 g/ha,80
same,"Plant response rating, Bermudagrass",[5]; [18],100
same,"Plant response rating, Bermudagrass",[5]; [22],90
same,"Plant response rating (0 to 100 where 0 is no effect and 100 is complete control), Bermudagrass","[5]; preemergence, Rate 250 g/ha",100
same,"Plant response rating (0 to 100 where 0 is no effect and 100 is complete control), Bermudagrass","[5]; preemergence, Rate 500 g/ha",100
same,"Plant response rating, Sunflower",Sunflower [6]; Rate 125 g/ha,20
same,"Plant response rating, Kochia",kochia (Kochia scoparia); [18],0
same,"Plant response rating, Kochia",kochia (Kochia scoparia); [22],90
same,"Plant response rating (0 to 100), Kochia","kochia (Kochia scoparia); preemergence, Rate 250 g/ha",100
same,"Plant response rating (0 to 100), Kochia","kochia (Kochia scoparia); preemergence, Rate 500 g/ha",100
same,"Plant response rating, Johnsongrass",[7]; [18],40
same,"Plant response rating, Johnsongrass",[7]; [22],50
same,"Plant response rating (0 to 100), Johnsongrass","[7]; preemergence, Rate 250 g/ha",50
same,"Plant response rating (0 to 100), Johnsongrass","[7]; preemergence, Rate 500 g/ha",60
same,"Plant response rating, Velvetleaf",[8]; [22],10
same,"Plant response rating (0 to 100), Velvetleaf","[8]; preemergence, Rate 500 g/ha",30
same,"Plant response rating, Velvetleaf",[8]; [23],10
same,"Plant response rating, Cupgrass, Woolly",[9]; [18],70
same,"Plant response rating, Cupgrass, Woolly",[9]; [22],90
same,"Plant response rating (0 to 100), Cupgrass, Woolly","[9]; preemergence, Rate 250 g/ha",90
same,"Plant response rating (0 to 100), Cupgrass, Woolly","[9]; preemergence, Rate 500 g/ha",100
same,"Plant response rating, Ragweed, Common",[10]; [22],0
same,"Plant response rating (0 to 100), Ragweed, Common","[10]; preemergence, Rate 500 g/ha",100
same,"Plant response rating, Ragweed, Common",[10]; [23],50
same,"Plant response rating, Corn",corn (Zea mays); [18],0
same,"Plant response rating, Corn",corn (Zea mays); [22],20
same,"Plant response rating (0 to 100), Corn","corn (Zea mays); preemergence, Rate 250 g/ha",10
same,"Plant response rating (0 to 100), Corn","corn (Zea mays); preemergence, Rate 500 g/ha",30
same,"Plant response rating, Surinam grass",[11]; [18],10
same,"Plant response rating, Surinam grass",[11]; [22],80
same,"Plant response rating (0 to 100), Surinam grass","[11]; preemergence, Rate 250 g/ha",70
same,"Plant response rating (0 to 100), Surinam grass","[11]; preemergence, Rate 500 g/ha",100
same,"Plant response rating, Cocklebur",[12]; [18],0
same,"Plant response rating, Cocklebur",[12]; [22],10
same,"Plant response rating (0 to 100), Cocklebur","[12]; preemergence, Rate 250 g/ha",20
same,"Plant response rating (0 to 100), Cocklebur","[12]; preemergence, Rate 500 g/ha",40
same,"Plant response rating, Nightshade",Nightshade; [21],0
same,"Plant response rating, Nightshade","Nightshade; Rate 125 g/ha; scale 0 to 100, 0 no effect, 100 complete control",10
same,"Plant response rating, Nightshade","Nightshade; Rate 250 g/ha, scale 0 to 100, 0 no effect, 100 complete control",30
same,"Plant response rating, Soybean",soybean (Glycine max); [22],10
same,"Plant response rating (0 to 100), Soybean","soybean (Glycine max); preemergence, Rate 500 g/ha",60
same,"Plant response rating, Soybean",soybean (Glycine max); [23],30
same,"Plant response rating, Lambsquarters",[13]; [18],100
same,"Plant response rating, Lambsquarters",[13]; [22],100
same,"Plant response rating (0 to 100), Lambsquarters","[13]; preemergence, Rate 500 g/ha",100
same,"Plant response rating, Lambsquarters",[13]; [23],100
same,"Plant response rating, Foxtail, Giant",[14]; [18],30
same,"Plant response rating, Foxtail, Giant",[14]; [22],0
same,"Plant response rating (0 to 100), Foxtail, Giant","[14]; preemergence, Rate 250 g/ha",100
same,"Plant response rating (0 to 100), Foxtail, Giant","[14]; preemergence, Rate 500 g/ha",100
same,"Plant response rating, Pigweed",[15]; [22],70
same,"Plant response rating (0 to 100), Pigweed","[15]; preemergence, Rate 500 g/ha",0
same,"Plant response rating, Pigweed",[15]; [23],100
